Experimental data reported in patent US10376515B2, “Analogs of adenosine monophosphate (AMP) as inhibitors of ubiquitin-like modifier-activating enzyme ATG7” (Northwestern University, priority 2016, dated 2019).
“Also recorded” adds a separate entry of the source.

What was measured:
[1] = tested on: A549 cells; assay: In-gel fluorescent detection of probe-labeled proteomes in live A549 cells; format: cell-based; details: 10 μM, 2 hours; for cell permeability and labeling of proteins in live cells: rhodamine azide click, in-gel fluorescence
Method: We investigated the labeling of proteins with the developed probes inside of live cells. To this end, A549 cells were treated with 10 μM of compounds 1, 2, 3, and 5 for 2 hours. Then, the lysate was treated with click reaction mixtures containing rhodamine azide.
A549 cells were grown in RPMI medium (Life Technologies) supplemented with 10% fetal bovine serum in 6-well plates. Confluent A549 cells (9.6 cm^2 per condition in 6-well plates) were washed with Dulbecco's Phosphate-Buffered Saline (DPBS, 3 mL) and the growth medium was replaced with RPMI medium containing each probe. After 2 h incubation time at 37° C., cells were washed with DPBS (3 mL). 160 μL of lysis buffer containing Tris HCl (25 mM, pH 7.6), NaCl (150 mM), 1% NP40, 1% sodium deoxycholate, 0.1% SDS, and protease inhibitor cocktail for mammalian cells (Sigma-Aldrich, 1:100 v/v) was added to each well of the 6-well plates, and cells were lysed on ice for 10 min. The gathered lysate was flown through 21G syringe for the complete breakdown. The complete lysis of the cells was monitored using Carl Zeiss Primo Vert inverted microscope. 10 μL of each cell lysate was treated with sodium dodecyl sulfate (final concentration 1%), followed by the incubation with the click chemistry reagents (CuSO4 (final conc. 1 mM), TBTA (final conc. 100 μM), sodium ascorbate (final conc. 1 mM) and Azide-Fluor-585 (final conc. 100 μM) for 30 min. Proteins were resolved by 10% SDS-PAGE, and subjected to in-gel scanning fluorescence imaging to visualize the covalent adducts. Total proteins in the gel were then visualized by staining the gel with Instant Blue™.

[2] = molecular target: T1, Human recombinant ATG7 protein (Homo sapiens, UniProt O95352); assay: Labeling of ATG7 with probes in vitro (click chemistry, in-gel fluorescence); format: binding; details: 3 hours; for labeling efficiency of ATG7 (intensity of the fluorescent bands): catalytically active ATG7 (0.5 μM), increasing probe concentrations, click chemistry, in-gel fluorescence
T1 construct: purchased R&D Systems
T1 sequence (O95352 1-703): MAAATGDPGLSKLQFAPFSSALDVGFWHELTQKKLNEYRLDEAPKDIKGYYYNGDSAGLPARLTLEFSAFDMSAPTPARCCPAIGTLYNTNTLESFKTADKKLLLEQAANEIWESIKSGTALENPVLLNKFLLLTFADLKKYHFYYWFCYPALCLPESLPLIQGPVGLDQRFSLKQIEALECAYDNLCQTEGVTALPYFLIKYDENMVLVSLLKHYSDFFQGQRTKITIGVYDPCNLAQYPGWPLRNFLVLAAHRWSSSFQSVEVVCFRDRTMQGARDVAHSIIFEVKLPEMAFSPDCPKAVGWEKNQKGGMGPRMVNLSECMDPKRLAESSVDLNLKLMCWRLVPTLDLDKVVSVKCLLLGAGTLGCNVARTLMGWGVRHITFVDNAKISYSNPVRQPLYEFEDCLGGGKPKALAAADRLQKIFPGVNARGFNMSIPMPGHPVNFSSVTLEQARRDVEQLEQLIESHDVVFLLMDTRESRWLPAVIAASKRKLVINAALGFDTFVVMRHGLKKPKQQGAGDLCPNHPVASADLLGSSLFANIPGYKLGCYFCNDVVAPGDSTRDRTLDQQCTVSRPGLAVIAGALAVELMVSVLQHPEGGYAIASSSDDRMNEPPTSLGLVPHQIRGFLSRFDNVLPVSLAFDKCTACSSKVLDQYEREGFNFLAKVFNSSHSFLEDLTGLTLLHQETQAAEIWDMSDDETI
Method: Following the synthesis, we incubated probes 1, 2, and 3 with catalytically active ATG7 (0.5 μM) for 3 hours. Then the click chemistry was followed to measure the levels of small molecule labeled ATG7. The intensity of the fluorescent bands was interpreted as the labeling efficiency of the probes.
(§1) Subsequently, increasing concentrations of compounds 4 and 5 were incubated with catalytically active ATG7 (0.5 μM) for 3 hours. […] We also conducted an ATP-competition reaction to test if compounds 4 and 5 utilize the ATP binding site for the covalent labeling. ATG7 was incubated with compound 4 or 5 in the presence or absence of ATP (100 μM) (FIG. 5B).
(§2) General Information. Human recombinant ATG7 protein was purchased from R&D Systems and used without further purification. In-gel fluorescence imaging was performed on a Typhoon 9600 (GE Healthcare).
(§3) Labeling of ATG7 with probes 1, 2, 3, 4, and 5 in vitro. ATG7 (0.4 μM) and TCEP (100 μM) in buffer containing HEPES (25 mM, pH 7.6), NaCl (50 mM), and MgCl2 (4 mM) were treated with increasing concentrations of each probe at room temperature (10 μL total volume) for 2 h. The reaction mixtures were treated with 1 μl of 10% SDS followed by 4 μL of click reaction mixture: CuSO4 (final conc. 1 mM), TBTA (final conc. 100 μM), sodium ascorbate (final conc. 1 mM), and Azide-Fluor-585 (final conc. 100 μM). The reaction mixture was incubated for 30 min at r.t., followed by the addition of 3 μL of 6× Laemmli loading buffer, and resolved by 12% SDS-PAGE. The bottom of the gel was cut to eliminate the excessive amount of Azide-Fluor-585. The acrylamide gel was kept in 50% ddH2O, 40% EtOH and 10% Acetic acid solution until it was subjected to the in-gel scanning fluorescence imaging (Typhoon 9600, GE Healthcare). The proteins in the gel were then visualized with Instant Blue™.

[3] = molecular target: T1, Human recombinant ATG7 protein; assay: ATP-competition reaction for covalent labeling of ATG7; format: binding; details: ATP (100 μM) present or absent
Method: as §1, §2
as §3, with “The bottom of the gel was cut to eliminate the excessive amount of Azide-Fluor-585.” left out, “The proteins in the gel were then visualized with Instant Blue™.” left out

Row | Structure (SMILES) | cell permeability and labeling of proteins in live cells [1] | labeling efficiency of ATG7 (intensity of the fluorescent bands) [2] | labeling of ATG7 at 10 μM concentration ([2]; probe 10 μM, ATG7 (0.5 μM)) | labeling of ATG7 in the presence of ATP compared to ATP free conditions [3] | off-targets (non-specifically labeled proteins) in live cells [1]
1 | C#CCCCCNS(=O)(=O)C=C [Compound 1] | cell permeable and able to label proteins in live cells | inefficient labeling | little labeling |  | 
2 | C#CCNc1ncnc2c1ncn2[C@@H]1O[C@H](COS(=O)(=O)C=C)[C@@H](O)[C@H]1O [Compound 4] |  |  |  | significantly dropped; also recorded: utilize ATP binding site for the ATG7 labeling | 
3 | C#CCNc1ncnc2c1ncn2[C@@H]1O[C@H](CNS(=O)(=O)C=C)[C@@H](O)[C@H]1O [Compound 2] | cell permeable and able to label proteins in live cells |  |  |  | 
4 | C#Cc1cccc(Nc2ncnc3c2ncn3[C@@H]2O[C@H](CNS(=O)(=O)C=C)[C@@H](O)[C@H]2O)c1 [Compound 3] | cell permeable and able to label proteins in live cells | higher labeling efficiency than 2; also recorded: much higher labeling efficiency than propargyl alkyne containing probes; also recorded: most potently labels ATG7 |  |  | 
5 | C#Cc1cccc(Nc2ncnc3c2ncn3[C@@H]2O[C@H](COS(=O)(=O)C=C)[C@@H](O)[C@H]2O)c1 [Compound 5] | cell permeable and able to label proteins in live cells | stronger intensity of the fluorescent bands than compound 4-treated ATG7; also recorded: much higher labeling efficiency than propargyl alkyne containing probes; also recorded: greater labeling potency than compound 4 |  | significantly dropped; also recorded: utilize ATP binding site for the ATG7 labeling | more numbers of off-targets when compared with compound 3; also recorded: strongest off target effects
